# Test system: MkC1qDC
# Experiment: hemagglutination inhibition, fixed human group […] erythrocytes, two-fold dilutions
# Assay type: cell-based, Modiolus kurilensis
# Conditions: Ca2+-dependent lectin activity, 0.1 mg/mL protein, titer decline by one two-fold dilution, also given as 1.16 mg/mL
structure (smiles),measurement,setting,value
OC[C@H]1OC(O)C[C@@H](O)[C@H]1O (stereo partly drawn) [2-deoxy-D-galactose],IC50,also printed as 2.46 mg/mL,15 mM
OC[C@H]1O[C@H](O[C@@H]2C(O)O[C@H](CO)[C@@H](O)[C@@H]2O)[C@@H](O)[C@@H](O)[C@@H]1O (stereo partly drawn) [2α- mannobiose],IC50,also printed as 10.26 mg/mL,30 mM
OC[C@H]1OC(O)[C@H](O)[C@@H](O)[C@H]1O (stereo partly drawn) [D-galactose],IC50,also printed as 5.40 mg/mL,30 mM
O=C(O)[C@H]1OC(O)[C@H](O)[C@@H](O)[C@H]1O (stereo partly drawn) [D-galacturonic acid],IC50,also printed as 1.46 mg/mL,7.5 mM
O=C(O)[C@H]1OC(O)[C@H](O)[C@@H](O)[C@@H]1O (stereo partly drawn) [D-glucuronic acid],IC50,also printed as 1.46 mg/mL,7.5 mM
OC[C@H]1O[C@@H](O[C@H]2[C@H](O)[C@@H](O)C(O)O[C@@H]2CO)[C@H](O)[C@@H](O)[C@H]1O (stereo partly drawn) [D-lactose],IC50,also printed as 5.13 mg/mL,15 mM
OC[C@@H]1OC(O)[C@@H](O)[C@@H](O)[C@@H]1O (stereo partly drawn) [L-gulose],IC50,also printed as 1.35 mg/mL,7.5 mM
CC(=O)N[C@H]1[C@H]([C@H](O)[C@H](O)CO)OC(O)(C(=O)O)C[C@@H]1O (some centres unmarked) [N-acetylneuraminic (sialic) acid],IC50,,3.75 mM

# From paper PMC8706970, “A Novel C1q Domain-Containing Protein Isolated from the Mollusk Modiolus kurilensis Recognizing Glycans Enriched with Acidic Galactans and Mannans” (Marine Drugs, 2021)
